Source: patent EP1332756A2, “Compositions and methods for restoring a normal pattern of imprinting to cells” (priority 1996, dated 1998)
Like-named read-outs stand apart in the source and are kept apart here.

Columns and labels:
IGF2 [1] = conditions: mouse cells with maternal disomy for chromosome 7 (Eversole-Cire et al.); cited from earlier work
cancer cells = test: Hollow fiber assay of in vivo cytotoxic effects; conditions: threshold for referral for xenograft testing
Source text: The compounds were additionally tested for their in vivo cytotoxic effects on cancer cells, using a hollow fiber assay as described in Hollingshead et al. (1995) Life Sci. 57:131-141, herein incorporated by reference. […] Thus, several new potential effective chemotherapeutics were identified for tumors and/or doses not taught in the literature.

IGF2 [2] = test: Allele-specific expression of IGF2 in tumor cells with LOI (RT-PCR, Apa I digestion); type: cell-based, human
Procedure: (§1) Cell Culture and Treatment With 5-azaCdR. JEG-3 human choriocarcinoma and COLO-205 human colon adenocarcinoma cell lines were obtained from ATTC. Cells were cultured in RPMI 1640, 10% fetal calf serum, 5% CO2, with antibiotics. 10^4-10^5 cells in 6 cm dishes were treated with 0.3-10 µM 5-azaCdR for 24 hours. Cultures were washed in Hank's buffered saline solution and grown to confluence. Concentrations of 0.3-3.0 µM caused minimal cytotoxicity (0-30%).
(§2) Analysis of Gene Expression. For quantitative analysis of gene expression, total RNA was isolated as described (Chomczynski, P. and Sacchi, N. (1987) Anal. Biochem. 162:156-159), and 10 µg was electrophoresed in 1.2% agarose gels containing formaldehyde, and was transferred to Hybond-N + membranes (Amersham) and hybridized as described with H19 and IGF2 probes (Steenrnan et al. (1994) Nature Genet. 7:433-439). Hybridization with GAPDH was used as a control for RNA loading. […] Each sample was analyzed in duplicate in the presence and absence of reverse transcriptase to exclude DNA contamination. Gels were blotted and hybridized with a ^32P-labeled internal specific oligonucleotide probe (Rainier et al. (1993) Nature 362:747-749), and quantified with a PhosphorImager (Molecular Dynamics).

H19 [3] = test: Quantitative H19 expression in tumor cells with LOI (Northern blot, PhosphorImager); type: cell-based; conditions: Homo sapiens, 24 h, read-out: increase in H19 expression
Procedure: as §1
Analysis of Gene Expression. For quantitative analysis of gene expression, total RNA was isolated as described (Chomczynski, P. and Sacchi, N. (1987) Anal. Biochem. 162:156-159), and 10 µg was electrophoresed in 1.2% agarose gels containing formaldehyde, and was transferred to Hybond-N + membranes (Amersham) and hybridized as described with H19 and IGF2 probes (Steenrnan et al. (1994) Nature Genet. 7:433-439). Hybridization with GAPDH was used as a control for RNA loading. For analysis of allele-specific expression, 0.5 µg RNA was treated with DNase I (Boehringer Mannheim), heated to 95°C for 7 minutes, and RT-PCR was performed as described for both IGF2 and H19 (Rainier et al. (1993) Nature 362:747-749), although nested PCR using primers HP1 and HP2 (Hashimoto et al. (1995) Nat. Genet. 9:109-110) was performed for H19 analysis. PCR products were digested with either Apa I (for IGF2 analysis) or Alu I (for H19 analysis) as described (Tadokoro et al. (1991) Nucleic Acids Res. 19:6967), and electrophoresed on 4% Nusieve-agarose (3:1) gels. Each sample was analyzed in duplicate in the presence and absence of reverse transcriptase to exclude DNA contamination. Gels were blotted and hybridized with a ^32P-labeled internal specific oligonucleotide probe (Rainier et al. (1993) Nature 362:747-749), and quantified with a PhosphorImager (Molecular Dynamics).

H19 [4] = test: Allele-specific methylation of H19 (Hpa II digestion, PCR, Alu I); type: cell-based, human; conditions: Hpa II digestion before PCR (Fig. 2B)
Procedure: (§3) Analysis of DNA Methylation. For quantitative analysis of DNA methylation, genomic DNA was prepared as described (Rainier et al. (1993) Nature 362:747-749), and Southern analysis of methylation of the H19 promoter CpG island was performed as described (Reik et al. (1994) Hum. Mol. Genet. 4:2379-2385). Filters were hybridized with the 1.8 kb Pst I fragment of H19, which detects imprint-specific methylation (Steenman et al. (1994) Nature Genet. 7:433-439). For analysis of allele-specific methylation, 1 µg DNA was digested with BamH I or with BamH I plus Hpa
After digestion, enzymes were inactivated by heating to 100° for 10 min. 50 ng digested DNA was added to the PCR reaction mix in Buffer F (Invitrogen), containing primers HP1 (5'-TACAACC-ACTGCACTACCTG-3') and H3 (5'-[…]-3') (Hashimoto et al. (1995) Nat. Genet. 9:109-110). One initial cycle (94°C, 4 min.) was followed by 28 cycles of 94°C, 1 min., 60°C, 1 min., 72° C, 1 min. PCR products (227 bp) were digested with Alu I, electrophoresed on 3% Nusieve/1% agarose gels, transferred to Hybond-N+ membranes (Arnersham), and hybridized with an internal oligonucleotide probe HP2 (5'-[…]-3'), and then quantified with a PhosphorImager (Molecular Dynamics). […]

IGF2 [5] = test: IGF2 methylation after 5-azaCdR treatment; type: cell-based, human; conditions: data not shown
Procedure: as §3

IGF2 [6] = conditions: normal human brain cells (Hu et al.); cited from earlier work
[7] = Cytotoxicity of 24 hour 5-azaCdR treatment in cell culture; type: cell-based; conditions: human, jeg-3 and colo-205 cells, Concentrations of 0.3-3.0 µM
Procedure: as §1

H19 promoter CpG island = test: Southern analysis of methylation of the H19 promoter CpG island (Pst I and Sma I); type: cell-based, human
Procedure: as §3
In order to determine whether treatment with 5-azaCdR altered methylation of this imprint-specific region, cells were digested with Pst I and Sma I, as described (Reik et al. (1994) Hum. Mol. Genet. 3:1297-1301). Normal cells show approximately 50% methylation, since the paternal allele is methylated and the maternal allele is unmethylated (Steenman et al. (1994) Nature Genet. 7:433-439; Moulton et al. (1994) Nature Genet. 7:440-447; Reik et al. (1994) Hum. Mol. Genet. 3:1297-1301). Cells with LOI show increased methylation, reflecting abnormal methylation of the maternal allele (Steenman et al. (1994) Nature Genet. 7:433-439; Moulton et al. (1994) Nature Genet. 7:440-447; Reik et al. (1994) Hum. Mol. Genet. 3:1297-1301). […]

H19 [8] = test: Allele-specific expression of H19 in tumor cells with LOI (RT-PCR, Alu I digestion); type: cell-based, human; conditions: JEG-3 cells
Procedure: as §1, §2

tumor cells with LOI = test: In vitro effect of NCI lead compounds on LOI (allele ratio), saline as negative control; type: cell-based; conditions: for effective concentration / Allele ratio 1.0=complete LOI: in vitro; for Allele ratio 1.0=complete LOI: at the effective concentration, saline 1.0
Procedure: Based on the results showing that 5-aza-2'-deoxycytidine can restore normal imprinting to tumor cells with LOI, an analysis was performed using the drug discovery program described in Weinstein et al. (1997) Science 275:343-349, herein incorporated by reference. […] The highest correlations were as follows: 127716, 619003, 626883, 624646, 145118, 1850512, 626884, 626886, 622810, 176889, 622616, 620358, 619948, 622461, 624645, 15309, 638737, 294734, 112152, 153174 204816, 79037, 628082, 620319 (NCI reference numbers). These are considered lead compounds to determine whether they will restore normal imprinting or could be chemically modified to do so.
As a first test of this approach, the in vitro effect of 12 of these compounds were analyzed with saline as a negative control.

[9] = tested on: Cells having LOI, (Group A); test: NCI database search for compounds effective against cell lines with LOI (Group A) but not those without LOI (Group B); conditions: lead compounds still to be tested

Compound | total effectiveness score > 20 or an in vivo cell kill effect seen directly (cancer cells) | effective concentration (tumor cells with LOI) | Allele ratio 1.0=complete LOI (tumor cells with LOI) | also measured
Nc1ncn([C@H]2C[C@H](O)[C@@H](CO)O2)c(=O)n1 [5-azaCdR, 5-aza-2'-deoxycytidine] | scored above the threshold for referral for xenograft testing |  |  | expression of the maternal IGF2 gene (IGF2 [1]): epigenetic activation of the normally silent maternal IGF2 gene; allelic expression of IGF2 (IGF2 [2]; COLO-205 colorectal carcinoma cells (data not shown)): a switch from biallelic to predominately monoallelic expression of IGF2; allelic expression of IGF2 (IGF2 [2]; JEG-3 cells, single 24 hr treatment with increasing doses (0.3, 0.6, 1.0 µM)): unequal expression of the two IGF2 alleles, with preferential expression of the allele lacking the Apa I polymorphic site; fold induction at 1 µM (H19 [3]; COLO-205 cells, 1.0 µM (data not shown)): 20; fold induction at 0.3 µM (H19 [3]; JEG-3 cells, 0.3 µM): 30; fold induction at 1 µM (H19 [3]; JEG-3 cells, 1.0 µM): 50; allele specificity of altered H19 methylation (H19 [4]): one allele was preferentially affected; IGF2 methylation (IGF2 [5]): not affected; allelic expression of IGF2 (IGF2 [6]): switched IGF2 from a pattern of preferential expression of one allele to equal biallelic expression; cytotoxicity at 24 h [7]: 0 to 30%; changes in DNA methylation of the H19 CpG island (H19 promoter CpG island; COLO-205 (data not shown)): reproducible; methylation of the H19 CpG island (H19 promoter CpG island; after treatment with 0.3 or 1.0 µM (Fig. 2A), normal cells approximately 50%): approximately 50%; allele-specific expression of H19 (H19 [8]): monoallelic expression of the allele containing the Alu I polymorphic site
CC1=CC(=O)C(C)=CC1=O [compound 15309, phlorone] | scored above the threshold for referral for xenograft testing | 10^-3M | 1.3 | 
C/C=C1/C(=O)O[C@]23C=C[C@@H]4C(C(=O)OC)=CO[C@H](O[C@@H]12)[C@@H]43 [compound 112152, plumericine] | scored above the threshold for referral for xenograft testing | 10^-3M | 1.2 | 
Nc1ccccc1 [compound 176889, benzenamine] |  |  | 3.7 | alteration in imprinting and/or cytotoxic effects (tumor cells with LOI; additional drugs tested): at least some alteration in imprinting and/or cytotoxic effects
C#CC[C@@]12CC(=O)C[C@@H]1CCC1(C2)OCCO1.C#CC[C@]12CC(=O)CC[C@H]1CC(=O)C2 [compound 619948] |  | 10^-4M | 1.8 | 
O=C1ON(Cc2ccccc2)C(c2ccccc2)N1c1ccccc1 (stereo not drawn) [compound 624645] |  | 10^-4M | 1.8 | 
COc1nc(NC2OC(CO)C(O)C(O)C2O)c(N)c(=O)[nH]1 (stereo not drawn) [compound 624646] | scored above the threshold for referral for xenograft testing | 10^-4M | 2.2 | 
CC(=O)O[C@@H]1[C@@H](C)/C=C/C(C)(C)[C@H](OC(C)=O)C[C@@H](OC(C)=O)/C(C)=C/[C@H]2[C@@H](OC(=O)c3ccccc3)[C@@H](C)C[C@]12OC(C)=O [compound 666860, euphornin D] |  |  |  | Predicted concentration [9]: 10^-4M
CC(C)/C(Cl)=N\OC(=O)NNc1ccccc1 [compound 682841] |  |  |  | Predicted concentration [9]: 10^-4M
Blue Platinum uracil [compound 180512] |  | 10^-2M | 45.0 | alteration in imprinting and/or cytotoxic effects (tumor cells with LOI): at least some alteration in imprinting and/or cytotoxic effects
Methyl-13-hydroxy-15-oxokaurenoate [compound 620358] | scored above the threshold for referral for xenograft testing | 10^-4M | 2.6 | alteration in imprinting and/or cytotoxic effects (tumor cells with LOI; additional drugs tested): at least some alteration in imprinting and/or cytotoxic effects
aspiculamycin HCL [200692-A] |  |  |  | Predicted concentration [9]: 10^-2M
cis-CCNU [compound 153174] |  | 10^-4M | 1.6 | 
gndimacrin [252940-S] |  |  |  | Predicted concentration [9]: 10^-4M
lankacyclin [compound 145118] |  | 10^-4M | 1.8 | alteration in imprinting and/or cytotoxic effects (tumor cells with LOI; additional drugs tested): at least some alteration in imprinting and/or cytotoxic effects
